Patent US20060194837A1, “Tetrahydroisoquinoline compounds” (priority 2004, published 2006)

Legend:
human H3 receptor = target: T1, human H3 receptor (Homo sapiens, UniProt Q9Y5N1); assay: H3 receptor binding (N-[3H]-α-methylhistamine displacement); conditions: membranes of SK-N-MC cells expressing cloned human H3 receptor, 0.8 nM N-[3H]-α-methylhistamine, 60 min at 25° C.
T1 construct: expressed in transfected cells

Rat SERT = target: T2, Rat SERT (Rattus norvegicus, UniProt P31652); assay: Rat brain SERT binding ([3H]-citalopram displacement); conditions: rat brain membranes without cerebellum, 0.6 nM [3H]-citalopram, 60 min at 25° C.; read-out: Rat SERT Ki
T2 construct: A rat brain without cerebellum (Zivic Laboratories, Inc.—Pittsburgh, Pa.) was homogenized; tissue Zivic Laboratories, Inc; host or cells: rat brain without cerebellum, membranes
T2 sequence (P31652 whole entry): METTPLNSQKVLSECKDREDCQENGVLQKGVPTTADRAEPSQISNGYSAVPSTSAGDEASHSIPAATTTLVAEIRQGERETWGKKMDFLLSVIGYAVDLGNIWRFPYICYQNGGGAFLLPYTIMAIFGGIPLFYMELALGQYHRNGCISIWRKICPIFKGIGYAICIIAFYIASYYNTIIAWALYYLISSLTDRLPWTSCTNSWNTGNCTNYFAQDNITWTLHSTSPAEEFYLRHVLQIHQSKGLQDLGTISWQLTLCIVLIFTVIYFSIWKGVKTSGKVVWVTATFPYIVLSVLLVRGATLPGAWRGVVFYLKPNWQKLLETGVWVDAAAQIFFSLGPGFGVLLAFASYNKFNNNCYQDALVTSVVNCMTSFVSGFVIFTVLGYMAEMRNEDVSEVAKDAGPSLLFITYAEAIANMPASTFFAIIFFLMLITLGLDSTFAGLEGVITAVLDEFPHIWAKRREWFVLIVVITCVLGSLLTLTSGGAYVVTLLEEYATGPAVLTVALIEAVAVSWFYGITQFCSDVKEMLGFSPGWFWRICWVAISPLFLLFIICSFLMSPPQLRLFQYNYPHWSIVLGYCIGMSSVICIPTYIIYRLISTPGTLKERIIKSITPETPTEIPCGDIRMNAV
Method: The supernatant was removed and re-centrifuged at 15,000 rpm for 30 min. […] Membranes were incubated with 0.6 nM [^3H]-Citalopram plus/minus test compounds for 60 min at 25° C. and harvested by rapid filtration over GF/C glass fiber filters (pretreated with 0.3% polyethylenimine) followed by four washes with ice-cold buffer.

T1 sequence (Q9Y5N1 whole entry): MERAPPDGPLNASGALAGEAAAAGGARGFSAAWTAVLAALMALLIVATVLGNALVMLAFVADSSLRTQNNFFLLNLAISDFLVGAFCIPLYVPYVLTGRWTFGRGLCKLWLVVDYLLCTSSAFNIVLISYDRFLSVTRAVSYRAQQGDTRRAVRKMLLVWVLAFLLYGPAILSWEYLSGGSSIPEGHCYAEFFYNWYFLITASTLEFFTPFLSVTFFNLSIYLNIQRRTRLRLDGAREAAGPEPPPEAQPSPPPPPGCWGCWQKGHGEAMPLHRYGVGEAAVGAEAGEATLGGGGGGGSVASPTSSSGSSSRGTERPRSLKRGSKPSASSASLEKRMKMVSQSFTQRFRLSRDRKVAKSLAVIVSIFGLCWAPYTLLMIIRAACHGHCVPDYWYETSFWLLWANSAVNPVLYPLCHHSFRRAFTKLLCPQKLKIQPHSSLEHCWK

Ki (human H3 receptor) [nM]	Ki (Rat SERT) [nM]	SMILES
233	2	COc1ccc(C2CN(C)Cc3cc(OC[C@@H]4CNCCO4)ccc32)cc1 (stereo partly drawn) [Example 252, 4-(4-Methoxy-phenyl)-2-methyl-7-(morpholin-2S-ylmethoxy)-1,2,3,4-tetrahydro-isoquinoline]
3	3	COc1ccc(C2CN(C)Cc3cc(OCCCN(C)C4CC4)ccc32)cc1 (centres unmarked) [Example 234, Cyclopropyl-{3-[4-(4-methoxy-phenyl)-2-methyl-1,2,3,4-tetrahydro-isoquinolin-7-yloxy]-propyl}-methyl-amine]
29	119	C#Cc1ccc(C2CN(C)Cc3cc(OCCCN4CCC(F)CC4)ccc32)cn1 (centres unmarked) [Example 190, 4-(6-Ethynyl-pyridin-3-yl)-7-[3-(4-fluoro-piperidin-1-yl)-propoxy]-2-methyl-1,2,3,4-tetrahydro-isoquinoline]
182	14	COc1cccc(C2CN(C)Cc3cc(OC4CCNCC4)ccc32)c1 (centres unmarked) [Example 96, 4-(3-Methoxy-phenyl)-2-methyl-7-(piperidin-4-yloxy)-1,2,3,4-tetrahydro-isoquinoline]
15	18	CSc1ccc(C2CN(C)Cc3cc(OCCCN4CCOCC4)c(C)cc32)cc1 (centres unmarked) [Example 173, 2,6-Dimethyl-4-(4-methylsulfanyl-phenyl)-7-(3-morpholin-4-yl-propoxy)-1,2,3,4-tetrahydro-isoquinoline]
5	7	COc1ccc(C2CN(C)Cc3cc(OCC4CCN(C5CCC5)CC4)ccc32)cc1 (centres unmarked) [Example 248, 7-(1-Cyclobutyl-piperidin-4-ylmethoxy)-4-(4-methoxy-phenyl)-2-methyl-1,2,3,4-tetrahydro-isoquinoline]
4	9	CCCN1CCC(COc2ccc3c(c2)CN(C)CC3c2ccc(OC)cc2F)CC1 (centres unmarked) [Example 114, 4-(2-Fluoro-4-methoxy-phenyl)-2-methyl-7-(1-propyl-piperidin-4-ylmethoxy)-1,2,3,4-tetrahydro-isoquinoline]
6	5	COc1ccc(C2CN(C)Cc3cc(OCCCN4CCC(F)CC4)ccc32)cc1F (single isomer, unassigned) [Example 144, 4-(3-Fluoro-4-methoxy-phenyl)-7-[3-(4-fluoro-piperidin-1-yl)-propoxy]-2-methyl-1,2,3,4-tetrahydro-isoquinoline]
3	9	CN1Cc2cc(OCCCN3CCC(F)CC3)ccc2C(c2ccc(-n3ccnc3)nc2)C1 (centres unmarked) [Example 192, 7-[3-(4-Fluoro-piperidin-1-yl)-propoxy]-4-(6-imidazol-1-yl-pyridin-3-yl)-2-methyl-1,2,3,4-tetrahydro-isoquinoline]
104	3	COc1ccc(C2CN(C)Cc3cc(OCCCN4CCS(=O)(=O)CC4)ccc32)cc1 (centres unmarked) [Example 27, 7-[3-(1,1-Dioxo-1λ^6-thiomorpholin-4-yl)-propoxy]-4-(4-methoxy-phenyl)-2-methyl-1,2,3,4-tetrahydro-isoquinoline]
8	4	COc1ccc(C2CN(C)Cc3cc(OCC4CCN(C5CCC5)CC4)ccc32)cc1F (centres unmarked) [Example 111, 7-(1-Cyclobutyl-piperidin-4-ylmethoxy)-4-(3-fluoro-4-methoxy-phenyl)-2-methyl-1,2,3,4-tetrahydro-isoquinoline]
78	15	COc1ccc(C2CN(C)Cc3cc(OCCCN4CCN(CC5OCCO5)CC4)ccc32)cc1 (centres unmarked) [Example 207, 7-[3-(4-[1,3]-Dioxolan-2-ylmethyl-piperazin-1-yl)-propoxy]-4-(4-methoxy-phenyl)-2-methyl-1,2,3,4-tetrahydro-isoquinoline]
1	49	COc1ccc(C2CN(CCCO)Cc3cc(OCCCN4CCCCC4)ccc32)cc1 (centres unmarked) [Example 70, 3-[4-(4-Methoxy-phenyl)-7-(3-piperidin-1-yl-propoxy)-3,4-dihydro-1H-isoquinolin-2-yl]-propan-1-ol]
2	10	CCN1CCC(Oc2ccc3c(c2)CN(C)CC3c2cccc(OC)c2)CC1 (centres unmarked) [Example 100, 7-(1-Ethyl-piperidin-4-yloxy)-4-(3-methoxy-phenyl)-2-methyl-1,2,3,4-tetrahydro-isoquinoline]
175	7	COc1ccc(C2CN(C)Cc3cc(OC4CCNCC4)ccc32)c(F)c1 (centres unmarked) [Example 150, 4-(2-Fluoro-4-methoxy-phenyl)-2-methyl-7-(piperidin-4-yloxy)-1,2,3,4-tetrahydro-isoquinoline]
99	10	COc1ccc(C2CN(C)Cc3cc(OCCCN4CCN(CC5CCCO5)CC4)ccc32)cc1 (centres unmarked) [Example 210, 4-(4-Methoxy-phenyl)-2-methyl-7-{3-[4-(tetrahydro-furan-2-ylmethyl)-piperazin-1-yl]-propoxy}-1,2,3,4-tetrahydro-isoquinoline]

Ki (human H3 receptor) [nM]	Ki (Rat SERT) [nM]	SMILES
4	3	COc1ccc(C2CN(C)Cc3cc(OCCC4CCCN4C)ccc32)cc1 (mixture of isomers) [Example 240, 4-(4-Methoxy-phenyl)-2-methyl-7-[2-(1-methyl-pyrrolidin-2-yl)-ethoxy]-1,2,3,4-tetrahydro-isoquinoline]
227	3	COc1ccc(C2CN(C)Cc3cc(OCCCN4CCN(c5nccs5)CC4)ccc32)cc1 (centres unmarked) [Example 200, 4-(4-Methoxy-phenyl)-2-methyl-7-[3-(4-thiazol-2-yl-piperazin-1-yl)-propoxy]-1,2,3,4-tetrahydro-isoquinoline]
59	2	COc1ccc(C2CN(C)Cc3cc(OCCCN4CC(F)(F)C4)ccc32)cc1 (centres unmarked) [Example 182, 7-[3-(3,3-Difluoro-azetidin-1-yl)-propoxy]-4-(4-methoxy-phenyl)-2-methyl-1,2,3,4-tetrahydro-isoquinoline]
26	69	CN1Cc2cc(OCCCN3CCC(F)CC3)ccc2C(c2ccc(Sc3ccccc3)nc2)C1 (centres unmarked) [Example 191, 7-[3-(4-Fluoro-piperidin-1-yl)-propoxy]-2-methyl-4-(6-phenylsulfanyl-pyridin-3-yl)-1,2,3,4-tetrahydro-isoquinoline]
6	10	CN1Cc2cc(OCCCN3CCC(F)CC3)ccc2C(c2ccc(Br)nc2)C1 (centres unmarked) [Example 186, 4-(6-Bromo-pyridin-3-yl)-7-[3-(4-fluoro-piperidin-1-yl)-propoxy]-2-methyl-1,2,3,4-tetrahydro-isoquinoline]
46	1	COCCNCCCOc1ccc2c(c1)CN(C)CC2c1ccc(OC)cc1 (centres unmarked) [Example 225, (2-Methoxy-ethyl)-{3-[4-(4-methoxy-phenyl)-2-methyl-1,2,3,4-tetrahydro-isoquinolin-7-yloxy]-propyl}-amine]
6	7	COc1ccc(C2CN(C)Cc3cc(OCCCN(C4CC4)C4CC4)ccc32)cc1 (centres unmarked) [Example 235, Dicyclopropyl-{3-[4-(4-methoxy-phenyl)-2-methyl-1,2,3,4-tetrahydro-isoquinolin-7-yloxy]-propyl}-amine]
6	45	COc1cccc(C2CN(C)Cc3cc(OC4CCN(C)CC4)ccc32)c1 (centres unmarked) [Example 97, 4-(3-Methoxy-phenyl)-2-methyl-7-(1-methyl-piperidin-4-yloxy)-1,2,3,4-tetrahydro-isoquinoline]
8	10	COc1ccc(C2CN(C)Cc3cc(OCC4CCN(C5CCC5)CC4)ccc32)c(F)c1 (centres unmarked) [Example 113, 7-(1-Cyclobutyl-piperidin-4-ylmethoxy)-4-(2-fluoro-4-methoxy-phenyl)-2-methyl-1,2,3,4-tetrahydro-isoquinoline]
32	8	COc1ccc(C2CN(C)Cc3cc(OCC4CN(CCF)CCO4)ccc32)cc1 (mixture of isomers) [Example 258, 7-[4-(2-Fluoro-ethyl)-morpholin-2-ylmethoxy]-4-(4-methoxy-phenyl)-2-methyl-1,2,3,4-tetrahydro-isoquinoline]
5000	77	COc1ccc(C2CN(C)Cc3cc(OCCCN4CC(C(c5ccccc5)c5ccccc5)C4)ccc32)cc1 (centres unmarked) [Example 137, 7-[3-(3-Benzhydryl-azetidin-1-yl)-propoxy]-4-(4-methoxy-phenyl)-2-methyl-1,2,3,4-tetrahydro-isoquinoline]
15	5	COc1ccc(C2CN(C)Cc3cc(OCCCN4CCN(C)CC4)ccc32)cc1 (centres unmarked) [Example 197, 4-(4-Methoxy-phenyl)-2-methyl-7-[3-(4-methyl-piperazin-1-yl)-propoxy]-1,2,3,4-tetrahydro-isoquinoline]
34	4	COc1ccc(C2CN(C)Cc3cc(OCC4CCN(CC(C)(C)O)CC4)ccc32)cc1 (centres unmarked) [Example 250, 1-{4-[4-(4-Methoxy-phenyl)-2-methyl-1,2,3,4-tetrahydro-isoquinolin-7-yloxymethyl]-piperidin-1-yl}-2-methyl-propan-2-ol]
64	17	COc1ccc(C2CN(C)Cc3cc(OC[C@H]4CN(C5CC5)CCO4)ccc32)cc1 (single isomer, unassigned) [Example 261B, 7-(4-Cyclopropyl-morpholin-2R-ylmethoxy)-4-(4-methoxy-phenyl)-2-methyl-1,2,3,4-tetrahydro-isoquinoline]
74	1	COc1ccc(C2CN(C)Cc3cc(OCCCN4C=NCCC4)ccc32)cc1 (centres unmarked) [Example 18, 7-[3-(5,6-Dihydro-4H-pyrimidin-1-yl)-propoxy]-4-(4-methoxy-phenyl)-2-methyl-1,2,3,4-tetrahydro-isoquinoline]
